Target: T1, breast cancer resistance protein (BCRP) (Homo sapiens, UniProt Q9UNQ0)
T1 sequence (Q9UNQ0 1-655): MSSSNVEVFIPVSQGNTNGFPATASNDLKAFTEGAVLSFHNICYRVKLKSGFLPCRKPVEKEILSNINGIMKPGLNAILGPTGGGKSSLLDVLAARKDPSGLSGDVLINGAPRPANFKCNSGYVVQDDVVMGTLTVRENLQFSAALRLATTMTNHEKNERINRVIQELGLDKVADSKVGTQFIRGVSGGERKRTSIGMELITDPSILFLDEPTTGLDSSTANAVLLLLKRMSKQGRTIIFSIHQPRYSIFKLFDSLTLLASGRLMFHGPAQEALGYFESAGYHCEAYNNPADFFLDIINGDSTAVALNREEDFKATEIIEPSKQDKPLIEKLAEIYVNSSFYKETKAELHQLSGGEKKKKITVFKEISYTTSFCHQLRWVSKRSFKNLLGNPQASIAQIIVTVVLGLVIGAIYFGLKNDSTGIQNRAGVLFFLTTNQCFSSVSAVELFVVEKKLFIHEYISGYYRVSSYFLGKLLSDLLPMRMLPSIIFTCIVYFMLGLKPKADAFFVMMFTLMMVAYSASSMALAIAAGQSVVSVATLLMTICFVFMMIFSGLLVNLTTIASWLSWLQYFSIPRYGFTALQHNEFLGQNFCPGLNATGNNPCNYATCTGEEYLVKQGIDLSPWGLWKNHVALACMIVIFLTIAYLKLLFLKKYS
Experiment: biochemical

Structure (SMILES): CNC(=O)c1cc(Oc2ccc(NC(=O)Nc3ccc(Cl)c(C(F)(F)F)c3)c(F)c2)ccn1 [regorafenib]
- EC50: 3.59 ± 0.42 µM
